Experimental findings from US12208098B2, “4-carbonylamino-4-phenylpyrimidine compound or pharmaceutically acceptable salt thereof” (Gachon University Of Industry-Academic Cooperation …, priority 2018, dated 2025) are described below.

For this assay, the target named is T1, Glutamate Dehydrogenase (GDH) (Rattus norvegicus, UniProt P10860).
T1 construct: only the supernatant was collected and transferred to a new tube to obtain a cell lysate; endogenous in cells; host or cells: INS-1 cell line (lysate)
Description: Enzyme activation experiment: GDH Activity Colorimetric Assay Kit on INS-1 cell lysate. In kind it is biochemical. Conditions: vehicle-treated group set to 1. The procedure:
Enzyme Activation Experiment
A sufficient amount of cells was obtained by culturing the INS-1 cell line under general cell culture condition (37° C. 5% CO2). Immediately before use in the experiment, a culture dish of the INS-1 cells was placed on ice, the culture medium was removed, and then washed with cold phosphate-buffered saline (PBS) (WELGEME, LB 001-02) to obtain a cell pellet.
To the harvested cell pellet, an appropriate amount of ice-cold Assay Buffer contained in the Glutamate Dehydrogenase (GDH) Activity Colorimetric Assay Kit (BioVision, K729-100) was added and then homogenized in the tube.
The tube was subjected to centrifuge in a condition of 13,000 g, 4° C. for 10 minutes, and then the pellet was discarded, and only the supernatant was collected and transferred to a new tube to obtain a cell lysate. Then, the protein concentration of the cell lysate was measured using Pierce™ BCA Protein Assay kit (Thermo, 23225).
By referring to the measured protein concentration, the cell lysate was prepared by diluting its concentration to 30 μg/50 μL or 100 μg/50 μL using the Assay Buffer.
The prepared cell lysate+vehicle or compound+Reaction mix was added according to the volume determined in the protocol of the Glutamate Dehydrogenase (GDH) Activity Colorimetric Assay Kit and reacted at 37° C., and the absorbance at 450 nm was measured using a kinetic method.
The GDH activity was calculated according to the calculation formula shown in the Assay Kit, and then the activity of the group treated with the vehicle was set to 1, and the folds of the remaining groups were calculated, and the results are shown in Table 2 below and FIG. 1.

T1 sequence (P10860 54-558): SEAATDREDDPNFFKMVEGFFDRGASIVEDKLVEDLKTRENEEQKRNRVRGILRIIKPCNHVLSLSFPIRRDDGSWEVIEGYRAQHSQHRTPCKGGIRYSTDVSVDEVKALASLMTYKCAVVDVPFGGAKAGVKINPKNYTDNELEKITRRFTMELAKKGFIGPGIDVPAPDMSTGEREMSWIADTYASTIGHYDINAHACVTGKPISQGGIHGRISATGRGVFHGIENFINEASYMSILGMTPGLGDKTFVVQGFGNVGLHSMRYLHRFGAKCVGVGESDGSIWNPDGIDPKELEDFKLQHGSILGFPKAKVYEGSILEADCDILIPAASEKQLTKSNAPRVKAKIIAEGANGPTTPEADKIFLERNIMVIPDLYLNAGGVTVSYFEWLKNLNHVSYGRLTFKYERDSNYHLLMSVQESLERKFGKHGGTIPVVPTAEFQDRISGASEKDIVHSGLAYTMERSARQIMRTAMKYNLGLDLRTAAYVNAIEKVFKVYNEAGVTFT

As to `Nc1nccc(-c2ccc(NC(=O)c3ccc(Br)cc3)cc2)n1` [Compound 6, N-(4-(2-aminopyrimidin-4-yl)phenyl)-4-bromobenzamide], the “Enzyme activity (fold)” value is reported as 2.14 fold (compound concentration 0.2 μM) and 6.93 fold (compound concentration 2 μM).
Turning to `COc1cc(C(=O)Nc2ccc(-c3ccnc(N)n3)cc2)ccc1Cl` [Compound 7, N-(4-(2-aminopyrimidin-4-yl)phenyl)-4-chloro-3-methoxybenzamide], the “Enzyme activity (fold)” value by setting is: (compound concentration 0.2 μM) 1.94 fold; (compound concentration 2 μM) 3.23 fold.
Take `Nc1nccc(-c2ccc(NC(=O)c3ccc(Cl)cc3)cc2)n1` [Compound 8, N-(4-(2-aminopyrimidin-4-yl)phenyl)-4-chlorobenzamide]: the “Enzyme activity (fold)” value (compound concentration 0.2 μM) came out at 1.34 fold and the “Enzyme activity (fold)” value (compound concentration 2 μM) turned out to be 11.05 fold.
With `Nc1nccc(-c2ccc(NC(=O)c3cc(Cl)cc(Cl)c3)cc2)n1` [Compound 9, N-(4-(2-aminopyrimidin-4-yl)phenyl)-3,5-dichlorobenzamide], the “Enzyme activity (fold)” value by setting is: (compound concentration 0.2 μM) 1.13 fold; (compound concentration 2 μM) 6.43 fold.
In the case of `Nc1nccc(-c2ccc(NC(=O)c3cccc(C(F)(F)F)c3F)cc2)n1` [Compound 10, N-(4-(2-aminopyrimidin-4-yl)phenyl)-2-fluoro-3-(trifluoromethyl)benzamide], the “Enzyme activity (fold)” value is recorded as 2.08 fold (compound concentration 0.2 μM) and 10.83 fold (compound concentration 2 μM).
